Measurements: patent US20240336593A1, “Compound Having Antitumor Activity And Use Thereof” (lnnovStoneTherapeutics Limited, priority 2020, published 2024)

target: PRMT5 (Homo sapiens (Human), UniProt O14744); assay: Inhibitory activity against PRMT5 enzyme by radioisotopic method; format: biochemical; settings: PRMT5 5 nM, [3H]-SAM 0.3 μM, polypeptide substrate GL-27 100 nM, room temperature
Protocol: Test Example 1. Test on the inhibitory activity of the compounds of the invention against PRMT5 enzyme by radioisotopic method
Test method: A 1× enzyme reaction buffer (10 mM Tris 8.0 (Sigma, Cat. No. T2694-1L), 0.01% Tween-20 (Sigma, Cat. No. P2287-100 ML), 1 mM DTT (Sigma, Cat. No. D0632-10G)) was prepared. PRMT5 (Active Motif, Cat. No. 31921) and [3H]—SAM (PerkinElmer, Cat. No. NET155V001MC) were added to the 1×enzyme reaction buffer, to prepare a 25/15× mixed solution (PRMT5 final concentration: 5 nM, [3H]—SAM final concentration: 0.3 μM). 15 μL of this solution was transferred into a 384-well microplate (Corning 384-well Polypropylene Storage Microplates, Cat. No. 3657) with various concentrations of the compounds (DMSO final concentration 1%), and incubated at room temperature for 60 minutes. A polypeptide substrate, GL-27 (Ac-[…]-K (Biotin) (GL Biochem, Cat. No. 342095)), was added into the 1×enzyme reaction buffer to prepare a 25/10× substrate solution. Then 10 μL of the polypeptide substrate solution (final concentration of the polypeptide substrate: 100 nM) was added, a reaction was stirred at room temperature for 120 minutes, and then 5 μL 6× ice cold SAM (Sigma, Cat. No. A7007-100 MG) solution was added to stop the reaction (SAM final concentration: 0.125 mM). 25 µL of the reaction mixture was transferred into a FlashPlate (Streptavidin FlashPlate HTS PLUS, High Capacity, 384-well, Perkin Elmer, Cat. No. SMP410A001PK), and incubated at room temperature for 1 h. After washed three times with distilled water containing 0.1% Tween-20, the microplate was read on a MicroBeta reader for CPM data (Counts Per Minute). […] Then the inhibition rate Inh % (Y) corresponding to each concentration (X) was input in EXCEL, and the IC50 value (the half maximal inhibitory concentration) of each compound was calculated with the XLfit plug-in according to the built-in four-parameter fitting equation Y=Bottom+(Top-Bottom)/(1+(IC50/X)[…]).

PRMT5, sequence (O14744 whole entry): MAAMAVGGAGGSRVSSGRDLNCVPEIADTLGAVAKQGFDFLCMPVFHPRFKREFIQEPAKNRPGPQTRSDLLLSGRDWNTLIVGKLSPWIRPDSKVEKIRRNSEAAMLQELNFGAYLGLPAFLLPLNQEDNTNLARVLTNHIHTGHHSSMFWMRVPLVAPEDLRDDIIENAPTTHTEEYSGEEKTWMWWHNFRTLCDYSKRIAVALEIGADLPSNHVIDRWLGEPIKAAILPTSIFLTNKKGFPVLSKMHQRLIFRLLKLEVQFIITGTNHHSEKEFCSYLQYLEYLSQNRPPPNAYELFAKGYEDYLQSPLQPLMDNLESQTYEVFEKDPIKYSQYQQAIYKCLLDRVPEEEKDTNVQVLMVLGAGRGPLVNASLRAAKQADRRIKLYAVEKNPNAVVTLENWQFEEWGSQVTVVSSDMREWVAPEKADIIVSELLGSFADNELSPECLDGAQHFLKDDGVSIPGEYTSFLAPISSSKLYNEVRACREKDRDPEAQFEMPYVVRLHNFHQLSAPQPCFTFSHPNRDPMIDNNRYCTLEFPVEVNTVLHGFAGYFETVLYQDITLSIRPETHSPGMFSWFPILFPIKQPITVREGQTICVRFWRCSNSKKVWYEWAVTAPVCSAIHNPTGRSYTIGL
PRMT5, sequence (Q9BQA1 whole entry partner): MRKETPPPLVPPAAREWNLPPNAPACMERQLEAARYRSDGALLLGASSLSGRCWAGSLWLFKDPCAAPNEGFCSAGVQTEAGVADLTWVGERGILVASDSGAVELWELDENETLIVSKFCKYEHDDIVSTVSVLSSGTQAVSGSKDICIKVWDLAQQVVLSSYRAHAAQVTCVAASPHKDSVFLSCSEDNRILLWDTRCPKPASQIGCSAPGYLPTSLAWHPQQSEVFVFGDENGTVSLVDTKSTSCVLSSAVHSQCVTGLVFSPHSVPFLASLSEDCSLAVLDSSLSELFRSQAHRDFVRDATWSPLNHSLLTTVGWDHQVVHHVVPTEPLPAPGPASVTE

Row | IC50 [nM] | SMILES
1 | < 100 | O[C@H]1CN(c2cc(Nc3cccc(C4CC4)c3)ncn2)CC[C@@H]1N1CCc2ccccc2C1 (relative stereo) [Example 35, trans-1-(6-((3-cyclopropylphenyl)amino)pyrimidin-4-yl)-4-(3,4-dihydroisoquinolin-2(1H)-yl)piperidin-3-ol]
2 | < 100 | CC(C)(C)c1cccc(Nc2cc(N3CC[C@H](N4CCc5ccccc5C4)[C@@H](O)C3)ncn2)c1 (relative stereo) [Example 37, trans-1-(6-((3-t-butylphenyl)amino)pyrimidin-4-yl)-4-(3,4-dihydroisoquinolin-2(1H)-yl)piperidin-3-ol]
3 | < 100 | O[C@H]1CN(c2cc(Nc3cccc(F)c3)ncn2)CC[C@@H]1N1CCc2ccccc2C1 (relative stereo) [Example 42, trans-1-(6-((3-fluorophenyl)amino)pyrimidin-4-yl)-4-(3,4-dihydroisoquinolin-2(1H)-yl)piperidin-3-ol]
4 | < 100 | O[C@H]1CN(c2cc(Nc3cccc(Cl)c3)ncn2)CC[C@@H]1N1CCc2ccccc2C1 (relative stereo) [Example 43, trans-1-(6-((3-chlorophenyl)amino)pyrimidin-4-yl)-4-(3,4-dihydroisoquinolin-2(1H)-yl)piperidin-3-ol]
5 | < 100 | COc1cccc(Nc2cc(N3CC[C@H](N4CCc5ccccc5C4)[C@@H](O)C3)ncn2)c1 (relative stereo) [Example 47, trans-1-(6-((3-methoxyphenyl)amino)pyrimidin-4-yl)-4-(3,4-dihydroisoquinolin-2(1H)-yl)piperidin-3-ol]
6 | < 100 | O[C@H]1CN(c2cc(Nc3ccc(N4CCOCC4)cc3)ncn2)CC[C@@H]1N1CCc2ccccc2C1 (relative stereo) [Example 49, trans-4-(3,4-dihydroisoquinolin-2(1H)-yl)-1-(6-((4-morpholinylphenyl)amino)pyrimidin-4-yl)piperidin-3-ol]
7 | < 100 | O[C@@H]1CN(c2cc(Nc3cccc(N4CCCC4)c3)ncn2)CC[C@H]1N1CCc2ccccc2C1 (relative stereo) [Example 67, trans-4-(3,4-dihydroisoquinolin-2(1H)-yl)-1-(6-((3-(pyrrolidin-1-yl)phenyl)amino)pyrimidin-4-yl)piperidin-3-ol]
8 | < 100 | O[C@@H]1CN(c2cc(Nc3cccc(N4CCOCC4)c3)ncn2)CC[C@H]1N1CCc2ccccc2C1 (relative stereo) [Example 73, trans-4-(3,4-dihydroisoquinolin-2(1H)-yl)-1-(6-((3-morpholinophenyl)amino)pyrimidin-4-yl)piperidin-3-ol]

Second part, the molecule before the results:

Row | SMILES | IC50 [nM]
9 | CC(=O)N1CCC(Nc2cc(C(=O)N3CC[C@H](N4CCc5ccccc5C4)[C@@H](O)C3)ncn2)CC1 (relative stereo) [Example 17, trans-1-(4-((6-(4-(3,4-dihydroisoquinolin-2(1H)-yl)-3-hydroxypiperidine-1-carbonyl)pyrimidin-4-yl)amino)piperidin-1-yl)ethanone] | < 100
10 | O[C@H]1CN(c2cc(Nc3ccccc3)ncn2)CC[C@@H]1N1CCc2ccccc2C1 (relative stereo) [Example 24, trans-4-(3,4-dihydroisoquinolin-2(1H)-yl)-1-(6-(phenylamino)-pyrimidin-4-yl)piperidin-3-ol] | < 100
11 | CC(=O)N1CCC(Nc2cccc(C(=O)N3CC[C@H](N4CCc5ccccc5C4)[C@@H](O)C3)c2)CC1 (relative stereo) [Example 28, trans-1-(4-((3-(4-(3,4-dihydroisoquinolin-2(1H)-yl)-3-hydroxypiperidine-1-carbonyl)phenyl)amino)piperidin-1-yl)ethan-1-one] | < 100
12 | O[C@H]1CN(c2cc(Nc3ccc(F)cc3)ncn2)CC[C@@H]1N1CCc2ccccc2C1 (relative stereo) [Example 30, trans-4-(3,4-dihydroisoquinolin-2(1H)-yl)-1-(6-((4-fluorophenyl)amino)-pyrimidin-4-yl)piperidin-3-ol] | < 100
13 | O[C@H]1CN(c2cc(Nc3ccc(C4CC4)cc3)ncn2)CC[C@@H]1N1CCc2ccccc2C1 (relative stereo) [Example 38, trans-1-(6-((4-cyclopropylphenyl)amino)pyrimidin-4-yl)-4-(3,4-dihydroisoquinolin-2(1H)-yl)piperidin-3-ol] | < 100
14 | CC(C)(C)c1ccc(Nc2cc(N3CC[C@H](N4CCc5ccccc5C4)[C@@H](O)C3)ncn2)cc1 (relative stereo) [Example 39, trans-1-(6-((4-t-butylphenyl)amino)pyrimidin-4-yl)-4-(3,4-dihydroisoquinolin-2(1H)-yl)piperidin-3-ol] | < 100
15 | Cc1ccccc1Nc1cc(N2CC[C@H](N3CCc4ccccc4C3)[C@@H](O)C2)ncn1 (relative stereo) [Example 46, trans-1-(6-((2-methylphenyl)amino)pyrimidin-4-yl)-4-(3,4-dihydroisoquinolin-2(1H)-yl)piperidin-3-ol] | < 100
16 | O[C@H]1CN(c2cc(Nc3ccccc3N3CCOCC3)ncn2)CC[C@@H]1N1CCc2ccccc2C1 (relative stereo) [Example 50, trans-4-(3,4-dihydroisoquinolin-2(1H)-yl)-1-(6-((2-morpholinylphenyl)-amino)pyrimidin-4-yl)piperidin-3-ol] | < 100
17 | O[C@H]1CN(c2cc(Nc3ccccc3C3CC3)ncn2)CC[C@@H]1N1CCc2ccccc2C1 (relative stereo) [Example 51, trans-4-(3,4-dihydroisoquinolin-2(1H)-yl)-1-(6-((2-cyclopropylphenyl)amino)pyrimidin-4-yl)piperidin-3-ol] | < 100
18 | O[C@H]1CN(c2cc(Nc3ccccc3F)ncn2)CC[C@@H]1N1CCc2ccccc2C1 (relative stereo) [Example 53, trans-4-(3,4-dihydroisoquinolin-2(1H)-yl)-1-(6-((2-fluorophenyl)amino)pyrimidin-4-yl)piperidin-3-ol] | < 100
19 | O[C@H]1CN(c2cc(Nc3ccccc3Cl)ncn2)CC[C@@H]1N1CCc2ccccc2C1 (relative stereo) [Example 54, trans-4-(3,4-dihydroisoquinolin-2(1H)-yl)-1-(6-((2-chlorophenyl)amino)pyrimidin-4-yl)piperidin-3-ol] | < 100
20 | COc1ccc(Nc2cc(N3CC[C@H](N4CCc5ccccc5C4)[C@@H](O)C3)ncn2)cc1 (relative stereo) [Example 55, trans-4-(3,4-dihydroisoquinolin-2(1H)-yl)-1-(6-((4-methoxyphenyl)amino)pyrimidin-4-yl)piperidin-3-ol] | < 100
21 | CC(C)(C)c1ccccc1Nc1cc(N2CC[C@H](N3CCc4ccccc4C3)[C@@H](O)C2)ncn1 (relative stereo) [Example 56, trans-4-(3,4-dihydroisoquinolin-2(1H)-yl)-1-(6-((2-t-butylphenyl)amino)pyrimidin-4-yl)piperidin-3-ol] | < 100
22 | COc1ccccc1Nc1cc(N2CC[C@H](N3CCc4ccccc4C3)[C@@H](O)C2)ncn1 (relative stereo) [Example 57, trans-4-(3,4-dihydroisoquinolin-2(1H)-yl)-1-(6-((2-methoxyphenyl)amino)pyrimidin-4-yl)piperidin-3-ol] | < 100
23 | O[C@H]1CN(c2cc(Nc3ccccc3C(F)(F)F)ncn2)CC[C@@H]1N1CCc2ccccc2C1 (relative stereo) [Example 58, trans-4-(3,4-dihydroisoquinolin-2(1H)-yl)-1-(6-((2-trifluoromethylphenyl)amino)pyrimidin-4-yl)piperidin-3-ol] | < 100
24 | O[C@H]1CN(c2cc(Nc3ccc(Cl)cc3)ncn2)CC[C@@H]1N1CCc2ccccc2C1 (relative stereo) [Example 62, trans-4-(3,4-dihydroisoquinolin-2(1H)-yl)-1-(6-((4-chlorophenyl)amino)pyrimidin-4-yl)piperidin-3-ol] | < 100
25 | O[C@H]1CN(c2cc(Nc3ccccc3-c3ccccc3)ncn2)CC[C@@H]1N1CCc2ccccc2C1 (relative stereo) [Example 66, trans-1-(6-([1,1′-biphenyl]-2-ylamino)pyrimidin-4-yl)-4-(3,4-dihydro-isoquinolin-2(1H)-yl)piperidin-3-ol] | < 100
26 | O[C@@H]1CN(c2cc(Nc3cccc(-c4ccccc4)c3)ncn2)CC[C@H]1N1CCc2ccccc2C1 (relative stereo) [Example 74, trans-1-(6-([1,1′-biphenyl]-3-ylamino)pyrimidin-4-yl)-4-(3,4-dihydroisoquinolin-2(1H)-yl)piperidin-3-ol] | < 100
27 | O[C@H]1CN(c2cc(Nc3ccc(F)c(F)c3)ncn2)CC[C@@H]1N1CCc2ccccc2C1 (relative stereo) [Example 78, trans-1-(6-((3,4-difluorophenyl)amino)pyrimidin-4-yl)-4-(3,4-dihydroisoquinolin-2(1H)-yl)piperidin-3-ol] | < 100
